Results as given in patent publication EP4806899A1, “FUSED RING DERIVATIVE, PREPARATION METHOD THEREFOR AND USE THEREOF IN MEDICINE” (Shanghai Qilu Pharmaceutical Research and Development …, priority 2023, dated 2025).
Values joined by “and” are separate entries in the source; they are usually repeats but may differ in a detail not shown here. Equal values may be shown once.

Experiments:
[1] = Pharmacokinetic determination in mice after gavage administration (P.O.); type: in vivo; conditions: male, CD-1, mouse, po, 10 mg/kg, plasma; for AUC(0-t): read-out: AUC0-24
Protocol: Mice and rats were used as test animals to study the pharmacokinetic behavior of the compounds of the present disclosure in plasma following gavage administration (P.O.). Plasma samples were collected at specific time points, compound concentrations in plasma were detected by LC-MS/MS, and pharmacokinetic parameters were calculated to evaluate the pharmacokinetics.
• Mice, CD-1, male, Zhejiang Vital River Laboratory Animal Technology Co., Ltd. • Rats, Sprague-Dawley, male, Zhejiang Vital River Laboratory Animal Technology Co., Ltd., Shanghai Jihui Experimental Animal Breeding Co., Ltd.
After administration to mice and rats, venous blood samples of 0.03 mL and 0.2 mL, respectively, were collected at 0.0833 (IV), 0.25, 0.5, 1, 2, 4, 8, and 24 hours and placed in EDTA-K2 test tubes. Plasma was separated by centrifugation at 4 °C, 4000 g for 5 minutes and stored at -80 °C.
• 1) 10 µL of plasma sample was precipitated by adding 200 µL of acetonitrile, vortex mixed, and centrifuged for 15 minutes. • 2) The processed supernatant was diluted with water and analyzed by LC/MS/MS to determine the concentration of the test compound.
Pharmacokinetic parameters were calculated using WinNonlin 8.3. The pharmacokinetic parameters for mice P.O. are shown in Table 4, and for rats P.O. in Table 5. Cmax represents the maximum plasma concentration, T1/2 represents the terminal elimination half-life, MRTInf represents the mean residence time, and AUC represents the area under the plasma concentration-time curve. Table 4 Pharmacokinetic Parameters of the Compounds of the Present Disclosure in Mice

human CYP11B2 enzyme = biological target: T1, human CYP11B2 enzyme (Homo sapiens, UniProt P19099); assay: Enzyme inhibition activity assay in G402 cells stably expressing human CYP11B2 (aldosterone production from 11-DOC, LC/MS); type: cell-based; conditions: 1 µM 11-DOC, 16 hours, aldosterone detected
T1 construct: the ORF of human CYP11B1 or CYP11B2 were transfected into G402 cells; expressed in transfected cells
T1 sequence (P19099 25-503): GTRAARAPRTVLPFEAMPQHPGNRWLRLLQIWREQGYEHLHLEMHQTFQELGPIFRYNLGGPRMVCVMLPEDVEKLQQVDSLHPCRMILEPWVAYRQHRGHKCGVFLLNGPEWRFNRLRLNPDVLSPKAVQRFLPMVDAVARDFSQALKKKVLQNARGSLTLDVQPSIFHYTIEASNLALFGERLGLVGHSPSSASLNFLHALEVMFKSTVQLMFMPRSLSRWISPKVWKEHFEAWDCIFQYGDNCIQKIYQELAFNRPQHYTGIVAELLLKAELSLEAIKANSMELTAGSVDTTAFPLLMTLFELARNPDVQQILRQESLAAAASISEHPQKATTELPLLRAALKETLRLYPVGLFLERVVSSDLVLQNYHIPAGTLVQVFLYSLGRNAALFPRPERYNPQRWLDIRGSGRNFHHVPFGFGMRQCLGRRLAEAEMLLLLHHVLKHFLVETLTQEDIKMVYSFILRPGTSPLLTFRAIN
Description: (§1) G402 cells (ATCC, CRL 1440) are epithelioid cells isolated from the kidney of a patient with renal failure and are a type of leiomyoblastoma. For the screening of highly specific CYP11B2 inhibitors, we specifically used G402 cell lines stably expressing human CYP11B2 enzyme or human CYP11B1 enzyme for experimental development.
(§2) Construction of Stably Transfected Cell Lines: Expression plasmids containing suitable promoters, suitable drug resistance markers, and the ORF of human CYP11B1 or CYP11B2 were transfected into G402 cells using standard techniques. The cells were then screened using the specific puromycin resistance marker. Monoclonal cells stably expressing human CYP11B2 were selected for expansion, and 11-deoxycorticosterone (11-DOC) was used as the specific substrate to evaluate enzyme activity based on aldosterone production. Monoclonal cells stably expressing human CYP11B1 were selected for expansion, and 11-deoxycortisol (11-DC) was used as the specific substrate, with cortisol production as the detection target for specific enzyme activity evaluation. The G402 cell lines stably expressing CYP11B1/CYP11B2 were cultured at 37 °C, 5% CO2, 95% air in complete medium (McCoy's 5A + 10% FBS + 1% PS + 0.5 µg/mL puromycin).
(§3) Enzyme Inhibition Activity Assay: CYP11B1 G402/CYP11B2 G402 cells were spread out flatly in cell culture plates. After 24 hours, the medium was changed to an enzyme testing system (DMEM/F12 + 2.5% charcoal-stripped FCS). Small molecule inhibitors at various concentrations were added. After 1 hour, appropriate concentrations of specific substrates (1 µM 11-DOC / 1 µM 11-DC) were added and co-incubated with the cells for 16 hours. Cells were then collected, and specific products were detected using LC/MS methods with an AB SCIEX TRIPLE QUAD 5500+, CTO-40S instrument (CYP11B2 enzyme detecting aldosterone; CYP11B1 enzyme detecting cortisol).
(§4) The IC50 values of the compounds were determined based on the G402 testing system. The dose-dependent inhibition of enzyme activity was calculated by plotting the added inhibitor concentration (x-axis) against the percentage of product inhibitory activity relative to the control group (y-axis) based on product formation at various compound concentrations. The following data were then fitted using the least squares method with XLfit 5.5.0 for a four-parameter logistic curve fit: [formula] • Y-axis: Percentage of product inhibitory activity relative to the control group; • logIC50: IC50 was determined using XLFit.
(§5) The maximum enzyme activity corresponds to the amount of control product steroid/aldosterone in the absence of inhibitor, set as 100%. The minimum enzyme activity corresponds to the amount of reference control product steroid/aldosterone in the presence of inhibitor. Table 3 Inhibitory Activity of the Compounds of the Present Disclosure on CYP11B2 and CYP11B1

human CYP11B1 enzyme = biological target: T2, human CYP11B1 enzyme (Homo sapiens, UniProt P15538); assay: Enzyme inhibition activity assay in G402 cells stably expressing human CYP11B1 (cortisol production from 11-DC, LC/MS); type: cell-based; conditions: 1 µM 11-DC, 16 hours, cortisol detected
T2 construct: the ORF of human CYP11B1 or CYP11B2 were transfected into G402 cells; expressed in transfected cells
T2 sequence (P15538 25-503): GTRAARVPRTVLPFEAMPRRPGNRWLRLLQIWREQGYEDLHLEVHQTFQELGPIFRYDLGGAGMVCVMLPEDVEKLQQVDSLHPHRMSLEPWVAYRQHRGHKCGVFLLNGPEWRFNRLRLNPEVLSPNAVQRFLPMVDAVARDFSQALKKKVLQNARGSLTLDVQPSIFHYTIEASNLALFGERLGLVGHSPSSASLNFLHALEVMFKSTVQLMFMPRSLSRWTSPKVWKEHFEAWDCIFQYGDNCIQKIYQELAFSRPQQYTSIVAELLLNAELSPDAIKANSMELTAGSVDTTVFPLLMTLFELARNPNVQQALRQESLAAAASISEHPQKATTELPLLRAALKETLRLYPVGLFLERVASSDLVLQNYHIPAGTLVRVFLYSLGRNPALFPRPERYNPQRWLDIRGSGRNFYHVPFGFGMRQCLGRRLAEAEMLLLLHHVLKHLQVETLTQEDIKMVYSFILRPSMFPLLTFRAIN
Description: as §1, §2, §3, §4, §5

plasma hormone levels = assay: Pharmacodynamic determination in monkeys: plasma aldosterone and cortisol after ACTH stimulation; type: in vivo, cynomolgus monkeys; conditions: P.O.
Protocol: Cynomolgus monkeys were used as test animals to evaluate the pharmacodynamics of multiple compounds of the present disclosure on plasma hormone levels following gavage administration (P.O.) at various doses such as 0.1 mpk (and others, e.g., 0.03 mpk, 0.1 mpk, and 0.3 mpk).
Male cynomolgus monkeys, Suzhou Xishan Zhongke Laboratory Animal Co., Ltd. Animal production license number: SCXK (Su) 2023-0001, animal use license number: SYXK (Su) 2020-0017.
Male cynomolgus monkeys were performed gavage administration (P.O.) at doses set as: 0 mpk (vehicle group, i.e., Veh group), 0.03 mpk, 0.1 mpk, and 0.3 mpk. In each group, 15 µg/kg ACTH was injected intramuscularly 1 hour after dosing. Continuous venous blood samples were collected from each group at 1 hour before administration and at multiple time points after administration. Blood samples were collected, and plasma aldosterone and its precursors, as well as plasma corticosterone and its precursors, at multiple time points were analyzed using LC/MS methods.
Venous blood samples were collected at 1-2 hours before gavage administration and at multiple time points after intramuscular injection of ACTH (adrenocorticotropic hormone). The samples were placed in EDTA-K2 tubes, centrifuged at 4 °C, 2600 g for 10 minutes to separate plasma, which was then stored at -80 °C.
• HPLC: Waters ACQUITY UPLC I-Class PLUS; • Mass spectrometry conditions: Triple Quad™ 7500 (Serial No. FA224362212) mass spectrometer; • Chromatographic column: phenomenex kinetex 2.6µm C8 100A 50 × 4.60 mm; • Mobile phase: mobile phase A was 0.5 mM ammonium fluoride solution containing 0.1% formic acid; mobile phase B was MeOH.
The data in Figs. 1, 2, 3, 4, and 5 are analyzed based on PD changes at 30 minutes after ACTH stimulation. The percentage of PD relative to the control group (Veh group) at 30 minutes after ACTH stimulation serves as the main basis for pharmacodynamic evaluation, calculated according to the following formula: [formula] where PD refers to aldosterone or cortisol. Table 8 Pharmacodynamic Evaluation of Example Compound C44 in Monkeys

in vivo = conditions: male, Sprague-Dawley, rat, plasma, po, 10 mg/kg
Protocol: • 1) 50 µL of plasma sample was precipitated by adding 200 µL of acetonitrile, vortex mixed, and centrifuged for 15 minutes. • 2) The processed supernatant was diluted with water and analyzed by LC/MS/MS to determine the concentration of the test compound.
Pharmacokinetic parameters were calculated using WinNonlin 8.3. […] Cmax represents the maximum plasma concentration, T1/2 represents the terminal elimination half-life, MRTInf represents the mean residence time, and AUC represents the area under the plasma concentration-time curve.

[2] = 0.03 mpk, 30min after ACTH stimulation, plasma
[3] = 0.1 mpk, 30min after ACTH stimulation, plasma
[4] = 0.3 mpk, 30min after ACTH stimulation, plasma

Compound | Cmax [1] [µM] | MRT inf [1] [h] | half-life [1] [h] | AUC(0-t) [1] [µM·h] | IC50 (human CYP11B2 enzyme) | IC50 (human CYP11B1 enzyme) | AUC(0-t) (in vivo) [µM·h] | Cmax (in vivo) [µM] | Aldosterone (plasma hormone levels; 0.03 mpk, 0h, plasma) [ng/mL] | Cortisol (plasma hormone levels; 0.03 mpk, 0h, plasma) [ng/mL] | Aldosterone (plasma hormone levels; [2]) [ng/mL] | Cortisol (plasma hormone levels; [2]) [ng/mL] | Aldosterone (plasma hormone levels; 0.1 mpk, 0h, plasma) [ng/mL] | Cortisol (plasma hormone levels; 0.1 mpk, 0h, plasma) [ng/mL] | Aldosterone (plasma hormone levels; [3]) [ng/mL] | Cortisol (plasma hormone levels; [3]) [ng/mL] | Aldosterone (plasma hormone levels; 0.3 mpk, 0h, plasma) [ng/mL] | Cortisol (plasma hormone levels; 0.3 mpk, 0h, plasma) [ng/mL] | Aldosterone (plasma hormone levels; [4]) [ng/mL] | Cortisol (plasma hormone levels; [4]) [ng/mL] | also measured
CCC(=O)N[C@@H]1CCCc2c(-c3cc(F)c4c(ccc(=O)n4C)c3)cncc21 [Compound C41] | 25 | 5.07 | 2.83 | 209 | 11.1 nM | 4900 nM | – | – | – | – | – | – | – | – | – | – | – | – | – | – | –
CCC(=O)N[C@@H]1CCCc2c(-c3cc(F)c4c(c3)COC(=O)N4C)cncc21 [Compound C44] | 53.1 | 4.78 | 2.28 | 421 | 187 nM | – | – | – | 0.07 | 279.5 | 0.28 | 384.0 | 0.24 | 455.0 | 0.20 | 538.5 | 0.07 | 265.5 | 0.07 | 396.0 | –

Further lines, with some results ahead:

Cmax [1] [µM] | MRT inf [1] [h] | half-life [1] [h] | AUC(0-t) [1] [µM·h] | IC50 (human CYP11B2 enzyme) | IC50 (human CYP11B1 enzyme) | AUC(0-t) (in vivo) [µM·h] | Cmax (in vivo) [µM] | Compound | Aldosterone (plasma hormone levels; 0.03 mpk, 0h, plasma) [ng/mL] | Cortisol (plasma hormone levels; 0.03 mpk, 0h, plasma) [ng/mL] | Aldosterone (plasma hormone levels; [2]) [ng/mL] | Cortisol (plasma hormone levels; [2]) [ng/mL] | Aldosterone (plasma hormone levels; 0.1 mpk, 0h, plasma) [ng/mL] | Cortisol (plasma hormone levels; 0.1 mpk, 0h, plasma) [ng/mL] | Aldosterone (plasma hormone levels; [3]) [ng/mL] | Cortisol (plasma hormone levels; [3]) [ng/mL] | Aldosterone (plasma hormone levels; 0.3 mpk, 0h, plasma) [ng/mL] | Cortisol (plasma hormone levels; 0.3 mpk, 0h, plasma) [ng/mL] | Aldosterone (plasma hormone levels; [4]) [ng/mL] | Cortisol (plasma hormone levels; [4]) [ng/mL] | also measured
– | – | – | – | 8.2 nM and 13.8 nM | 3380 nM and 18800 nM | 522 | 52.1 | CCC(=O)N[C@@H]1CCOc2c(-c3ccc4c(ccc(=O)n4C)c3)cncc21 [Compound A09] | 0.20 | 214.0 | 0.34 | 285.3 | 0.24 | 256.7 | 012 | 345.0 | 0.08 | 286.7 | 0.07 | 388.3 | MRT inf (in vivo): 8.19 h; half-life (in vivo): 5.91 h
– | – | – | – | 16.7 nM | 7220 nM | 345 | 47.9 | CCC(=O)N[C@@H]1CCCc2c(-c3cc(C)c4c(ccc(=O)n4C)c3)cncc21 [Compound C43] | 0.16 | – | 0.26 | – | 0.16 | – | 0.15 | – | 0.20 | – | 0.14 | – | Cortisol (plasma hormone levels; 0.03 mpk, 0h, plasma (Table 11)): 268.3 ng/mL; Cortisol (plasma hormone levels; 0.03 mpk, 30min after ACTH stimulation, plasma (Table 11)): 358.7 ng/mL; Cortisol (plasma hormone levels; 0.1 mpk, 0h, plasma (Table 11)): 282.0 ng/mL; Cortisol (plasma hormone levels; 0.1 mpk, 30min after ACTH stimulation, plasma (Table 11)): 386.0 ng/mL; Cortisol (plasma hormone levels; 0.3 mpk, 0h, plasma (Table 11)): 276.0 ng/mL; Cortisol (plasma hormone levels; 0.3 mpk, 30min after ACTH stimulation, plasma (Table 11)): 346.7 ng/mL; MRT inf (in vivo): 6.24 h; half-life (in vivo): 4.77 h
30.2 | 4.36 | 2.54 | 223 | 13.2 nM | 1150 nM | – | – | CCC(=O)N[C@@H]1CCCc2c(-c3ccc4c(c3)COC(=O)N4C)cncc21 [Compound C07] | – | – | – | – | – | – | – | – | – | – | – | – | –
